Inhibition and IC50 data for one compound are collected here from article PMC5761851, “Application of a phenotypic drug discovery strategy to identify biological and chemical starting points for inhibition of TSLP production in lung epithelial cells” (PLoS ONE, 2018).

Read-outs that look alike come from different tables or passages of the source.

The target of one test is T1, 5-HT4e (Homo sapiens, UniProt Q13639).
T1 construct: purchased Eurofins Pharma Discovery Services (KinaseProfiler; Cerep BioPrint panel)
T1 sequence (Q13639 1-378 isoform Q13639-5): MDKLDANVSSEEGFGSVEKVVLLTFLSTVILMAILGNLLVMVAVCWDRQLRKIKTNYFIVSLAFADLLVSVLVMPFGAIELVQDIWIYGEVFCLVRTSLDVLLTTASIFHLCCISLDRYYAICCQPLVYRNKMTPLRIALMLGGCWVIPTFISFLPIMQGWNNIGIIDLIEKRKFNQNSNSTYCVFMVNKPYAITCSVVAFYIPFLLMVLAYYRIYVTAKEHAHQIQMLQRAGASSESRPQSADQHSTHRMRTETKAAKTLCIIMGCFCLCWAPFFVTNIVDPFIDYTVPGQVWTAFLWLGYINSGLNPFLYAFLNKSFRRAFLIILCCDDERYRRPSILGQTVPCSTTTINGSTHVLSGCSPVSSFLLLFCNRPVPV
Kind of test: BioPrint panel: 5-HT4e (h) (antagonist). In kind it is binding. As to conditions: 1 micromolar, read-out: percentage of inhibition of activity. The text has this:
(§1) Supplement pone.0189247.s004.xlsx, sheet "Bioprint Selectivity Panel" | column: %

Test [1] has as its system Phosphorylation of Akt in THP1 cells. Kind of test: PI3Kδ dependent pAkt phosphorylation in M-CSF stimulated THP-1 cells. In kind it is cell-based. The procedure: Quantification of enzymatic p38 activity and p38-dependent TNF production in THP-1 cells was performed as previously described. Enzymatic Syk kinase activity assays and Syk dependent LAD2 cells degranulation assays were performed as previously described. PI3Kδ dependent pAkt phosphorylation in macrophage colony-stimulating factor (M-CSF) stimulated THP-1 cells was measured as previously described.

The target in a further test is T2, AT2 (Homo sapiens, UniProt P50052).
T2 construct: purchased Eurofins Pharma Discovery Services (KinaseProfiler; Cerep BioPrint panel)
T2 sequence (P50052 whole entry): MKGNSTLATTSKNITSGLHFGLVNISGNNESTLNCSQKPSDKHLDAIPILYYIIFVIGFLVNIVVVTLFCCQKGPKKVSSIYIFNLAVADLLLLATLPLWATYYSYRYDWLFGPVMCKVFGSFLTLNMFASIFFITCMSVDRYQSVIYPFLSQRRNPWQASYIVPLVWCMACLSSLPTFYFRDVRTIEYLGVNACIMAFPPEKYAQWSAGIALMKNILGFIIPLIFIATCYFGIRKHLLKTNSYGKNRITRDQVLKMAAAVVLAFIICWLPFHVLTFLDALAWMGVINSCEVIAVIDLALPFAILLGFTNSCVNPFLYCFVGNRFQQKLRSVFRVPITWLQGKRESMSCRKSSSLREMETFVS
Kind of test: BioPrint panel: AT2 (h) (agonist). In kind it is binding. The conditions noted are these: 1 micromolar, read-out: percentage of inhibition of activity.
Source text: as §1

As a reminder, the inhibition is the relative decrease from the control value, in per cent. As usually defined, the IC50 is the concentration that inhibits the measured activity by half. For `Cn1cc(-c2cccc(-c3nc(C(=O)NC4C5CC6CC4CC(O)(C6)C5)c(N)nc3N)c2)cn1` (centres unmarked) [compound 4], the inhibition at 1 µM on 5-HT4e was 3.8%; on AT2, -8%. In addition, the 50% inhibitory concentration (IC50) in test [1] (Homo sapiens, THP-1, M-CSF stimulated, geometric mean, read-out: Activity in reference cell based assay (IC50, μM) (95% CI) Phosphorylation of Akt in THP1 cells) worked out at 0.099 µM; in test [1] (Homo sapiens, THP-1, individual values, read-out: Cellular activity (IC50, mM) Akt phosphorylation in THP1), 0.085 µM; in test [1] (individual values, read-out: Cellular activity (IC50, mM) Akt phosphorylation in THP1), 0.117 µM.
